Data on two molecules can be found in ChEMBL document CHEMBL4387741, “Optimization of novel reversible Bruton's tyrosine kinase inhibitors identified using Tethering-fragment-based screens” (Bioorg Med Chem, 2019).

In assay [1] the target is Serine/threonine-protein kinase TAO2 (Homo sapiens) (UniProt Q9UL54). The experiment in a line: Inhibition of wild-type human partial length TAOK2 (M1 to A320 residues) expressed in mammalian expression system at 1 uM by Kinomescan method relative to control.
For assay [2], the target named is Serine/threonine-protein kinase DCLK2 (Homo sapiens) (UniProt Q8N568). Briefly: Inhibition of wild-type human partial length DCAMKL2 (K273 to V664 residues) expressed in bacterial expression system at 1 uM by Kinomescan method relative to control.
Assay [3] has as its target Serine/threonine-protein kinase 10 (Homo sapiens) (UniProt O94804). Briefly: Inhibition of wild-type human partial length LOK (E16 to V314 residues) expressed in bacterial expression system at 1 uM by Kinomescan method relative to control.
In assay [4] the target is Serine/threonine-protein kinase/endoribonuclease IRE1 (Homo sapiens) (UniProt O75460). Briefly: Inhibition of wild-type human partial length ERN1 (S551 to E852 residues) expressed in mammalian expression system at 1 uM by Kinomescan method relative to control.
The target of assay [5] is Dual specificity protein kinase CLK3 (Homo sapiens) (UniProt P49761). The experiment in a line: Inhibition of wild-type human full length CLK3 (M1 to R490 residues) expressed in bacterial expression system at 1 uM by Kinomescan method relative to control.
For assay [6], the target named is Mitogen-activated protein kinase kinase kinase 14 (Homo sapiens) (UniProt Q99558). The experiment in a line: Inhibition of wild-type human partial length NIK (L318 to P947 residues) expressed in mammalian expression system at 1 uM by Kinomescan method relative to control.
Assay [7] deals with Proto-oncogene tyrosine-protein kinase ROS (Homo sapiens) (UniProt P08922). The experiment in a line: Inhibition of wild-type human partial length ROS1 (A1921 to N2240 residues) expressed in bacterial expression system at 1 uM by Kinomescan method relative to control.
Assay [8] has as its target Serine/threonine-protein kinase SIK3 (Homo sapiens) (UniProt Q9Y2K2). The experiment in a line: Inhibition of wild-type human partial length QSK (A90 to L395 residues) expressed in mammalian expression system at 1 uM by Kinomescan method relative to control.
Assay [9] concerns the target Serine/threonine-protein kinase NLK (Homo sapiens) (UniProt Q9UBE8). The experiment in a line: Inhibition of wild-type human full length NLK (M13 to E527 residues) expressed in bacterial expression system at 1 uM by Kinomescan method relative to control.
In assay [10] the target is Bone morphogenetic protein receptor type-1B (Homo sapiens) (UniProt O00238). The experiment in a line: Inhibition of wild-type human partial length BMPR1B (D178 to L502 residues) expressed in mammalian expression system at 1 uM by Kinomescan method relative to control.
Assay [11] concerns the target Serine/threonine-protein kinase 26 (Homo sapiens) (UniProt Q9P289). The experiment in a line: Inhibition of wild-type human full length MST4 (M1 to P416 residues) expressed in mammalian expression system at 1 uM by Kinomescan method relative to control.
Assay [12] concerns the target Serine/threonine-protein kinase VRK2 (Homo sapiens) (UniProt Q86Y07). Briefly: Inhibition of wild-type human partial length VRK2 (M1 to T336 residues) expressed in mammalian expression system at 1 uM by Kinomescan method relative to control.
The target in assay [13] is Serine/threonine-protein kinase B-raf (Homo sapiens) (UniProt P15056). The experiment in a line: Inhibition of wild-type human partial length BRAF (S429 to E741 residues) expressed in mammalian expression system at 1 uM by Kinomescan method relative to control.
The target of assay [14] is Megakaryocyte-associated tyrosine-protein kinase (Homo sapiens) (UniProt P42679). Briefly: Inhibition of wild-type human full length CTK (M43 to P508 residues) expressed in mammalian expression system at 10 uM by Kinomescan method relative to control.
The target of assay [15] is AP2-associated protein kinase 1 (Homo sapiens) (UniProt Q2M2I8). Briefly: Inhibition of human wild-type AAK1 (G25 to L333 residues) expressed in bacterial expression system at 10 uM by Kinomescan method relative to control.
In assay [16] the target is Mitogen-activated protein kinase 15 (Homo sapiens) (UniProt Q8TD08). The experiment in a line: Inhibition of wild-type human partial length ERK8 (M1 to P437 residues) expressed in bacterial expression system at 10 uM by Kinomescan method relative to control.
In assay [17] the target is NUAK family SNF1-like kinase 2 (Homo sapiens) (UniProt Q9H093). Briefly: Inhibition of wild-type human partial length SNARK (P22 to A333 residues) expressed in mammalian expression system at 10 uM by Kinomescan method relative to control.
The target of assay [18] is Myosin light chain kinase 2, skeletal/cardiac muscle (Homo sapiens) (UniProt Q9H1R3). Briefly: Inhibition of wild-type human partial length MYLK2 (D258 to K570 residues) expressed in bacterial expression system at 10 uM by Kinomescan method relative to control.
For assay [19], the target named is Mitogen-activated protein kinase kinase kinase 13 (Homo sapiens) (UniProt O43283). Briefly: Inhibition of wild-type human full length LZK (M1 to W966 residues) expressed in mammalian expression system at 10 uM by Kinomescan method relative to control.
Assay [20] deals with Serine/threonine-protein kinase WNK2 (Homo sapiens) (UniProt Q9Y3S1). The experiment in a line: Inhibition of wild-type human partial length WNK2 (V47 to D482 residues) expressed in mammalian expression system at 10 uM by Kinomescan method relative to control.
Assay [21] has as its target Myosin-IIIb (Homo sapiens) (UniProt Q8WXR4). The experiment in a line: Inhibition of wild-type human partial length MYO3B (M1 to D357 residues) expressed in bacterial expression system at 10 uM by Kinomescan method relative to control.
Assay [22] concerns the target Casein kinase I isoform gamma-1 (Homo sapiens) (UniProt Q9HCP0). The experiment in a line: Inhibition of wild-type human partial length CSNK1G1 (T15 to S353 residues) expressed in bacterial expression system at 10 uM by Kinomescan method relative to control.
Assay [23] concerns the target Serine/threonine-protein kinase N2 (Homo sapiens) (UniProt Q16513). Briefly: Inhibition of wild-type human partial length PKN2 (E634 to C984 residues) expressed in bacterial expression system at 10 uM by Kinomescan method relative to control.
Assay [24] deals with Phosphatidylinositol 5-phosphate 4-kinase type-2 gamma (Homo sapiens) (UniProt Q8TBX8). The experiment in a line: Inhibition of wild-type human partial length PIP5K2C (M1 to A421 residues) expressed in mammalian expression system at 10 uM by Kinomescan method relative to control.
Assay [25] concerns the target Mitogen-activated protein kinase 7 (Homo sapiens) (UniProt Q13164). Briefly: Inhibition of wild-type human partial length ERK5 (M1 to A409 residues) expressed in bacterial expression system at 10 uM by Kinomescan method relative to control.
The target in assay [26] is Eukaryotic translation initiation factor 2-alpha kinase 1 (Homo sapiens) (UniProt Q9BQI3). The experiment in a line: Inhibition of wild-type human partial length EIF2AK1 (Q147 to E603 residues) expressed in mammalian expression system at 10 uM by Kinomescan method relative to control.
Assay [27] concerns the target Non-receptor tyrosine-protein kinase TYK2 (Homo sapiens) (UniProt P29597). Briefly: Inhibition of wild-type human partial length TYK2 JH2 pseudokinase domain (G556 to D888 residues) expressed in mammalian expression system at 10 uM by Kinomescan method relative to control.

Eukaryotic translation initiation factor 2-alpha kinase 1 (Homo sapiens), sequence (Q9BQI3 whole entry, the tested form may be a part): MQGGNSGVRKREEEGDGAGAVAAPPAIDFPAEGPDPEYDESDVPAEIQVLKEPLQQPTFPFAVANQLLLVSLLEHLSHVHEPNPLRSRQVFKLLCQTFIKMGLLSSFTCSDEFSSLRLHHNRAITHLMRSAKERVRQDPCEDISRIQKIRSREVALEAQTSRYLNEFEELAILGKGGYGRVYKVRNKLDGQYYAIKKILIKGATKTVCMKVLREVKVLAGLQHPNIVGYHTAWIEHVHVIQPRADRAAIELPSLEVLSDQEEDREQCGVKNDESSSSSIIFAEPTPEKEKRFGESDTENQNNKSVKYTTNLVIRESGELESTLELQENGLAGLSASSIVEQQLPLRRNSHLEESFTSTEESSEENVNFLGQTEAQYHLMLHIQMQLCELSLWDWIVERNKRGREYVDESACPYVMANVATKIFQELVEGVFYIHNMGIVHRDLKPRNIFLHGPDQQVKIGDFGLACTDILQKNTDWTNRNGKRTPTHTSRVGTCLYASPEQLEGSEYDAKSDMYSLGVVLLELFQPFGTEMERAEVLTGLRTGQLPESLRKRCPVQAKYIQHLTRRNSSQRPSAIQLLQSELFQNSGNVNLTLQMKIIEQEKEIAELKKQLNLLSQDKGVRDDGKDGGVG
Serine/threonine-protein kinase 26 (Homo sapiens), sequence (Q9P289 2-416 limits assumed): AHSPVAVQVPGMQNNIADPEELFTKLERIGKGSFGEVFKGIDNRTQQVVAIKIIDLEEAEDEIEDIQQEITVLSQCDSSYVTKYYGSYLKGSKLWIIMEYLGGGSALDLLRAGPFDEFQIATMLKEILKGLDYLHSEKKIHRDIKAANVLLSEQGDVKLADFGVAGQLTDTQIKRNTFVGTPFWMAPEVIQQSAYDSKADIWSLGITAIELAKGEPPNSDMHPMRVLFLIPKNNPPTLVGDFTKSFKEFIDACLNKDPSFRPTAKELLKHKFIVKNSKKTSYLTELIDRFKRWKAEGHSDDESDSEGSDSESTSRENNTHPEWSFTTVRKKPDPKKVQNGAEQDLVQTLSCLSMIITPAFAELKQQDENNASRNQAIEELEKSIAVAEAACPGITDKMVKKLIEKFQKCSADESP
Serine/threonine-protein kinase TAO2 (Homo sapiens), sequence (Q9UL54 whole entry, the tested form may be a part): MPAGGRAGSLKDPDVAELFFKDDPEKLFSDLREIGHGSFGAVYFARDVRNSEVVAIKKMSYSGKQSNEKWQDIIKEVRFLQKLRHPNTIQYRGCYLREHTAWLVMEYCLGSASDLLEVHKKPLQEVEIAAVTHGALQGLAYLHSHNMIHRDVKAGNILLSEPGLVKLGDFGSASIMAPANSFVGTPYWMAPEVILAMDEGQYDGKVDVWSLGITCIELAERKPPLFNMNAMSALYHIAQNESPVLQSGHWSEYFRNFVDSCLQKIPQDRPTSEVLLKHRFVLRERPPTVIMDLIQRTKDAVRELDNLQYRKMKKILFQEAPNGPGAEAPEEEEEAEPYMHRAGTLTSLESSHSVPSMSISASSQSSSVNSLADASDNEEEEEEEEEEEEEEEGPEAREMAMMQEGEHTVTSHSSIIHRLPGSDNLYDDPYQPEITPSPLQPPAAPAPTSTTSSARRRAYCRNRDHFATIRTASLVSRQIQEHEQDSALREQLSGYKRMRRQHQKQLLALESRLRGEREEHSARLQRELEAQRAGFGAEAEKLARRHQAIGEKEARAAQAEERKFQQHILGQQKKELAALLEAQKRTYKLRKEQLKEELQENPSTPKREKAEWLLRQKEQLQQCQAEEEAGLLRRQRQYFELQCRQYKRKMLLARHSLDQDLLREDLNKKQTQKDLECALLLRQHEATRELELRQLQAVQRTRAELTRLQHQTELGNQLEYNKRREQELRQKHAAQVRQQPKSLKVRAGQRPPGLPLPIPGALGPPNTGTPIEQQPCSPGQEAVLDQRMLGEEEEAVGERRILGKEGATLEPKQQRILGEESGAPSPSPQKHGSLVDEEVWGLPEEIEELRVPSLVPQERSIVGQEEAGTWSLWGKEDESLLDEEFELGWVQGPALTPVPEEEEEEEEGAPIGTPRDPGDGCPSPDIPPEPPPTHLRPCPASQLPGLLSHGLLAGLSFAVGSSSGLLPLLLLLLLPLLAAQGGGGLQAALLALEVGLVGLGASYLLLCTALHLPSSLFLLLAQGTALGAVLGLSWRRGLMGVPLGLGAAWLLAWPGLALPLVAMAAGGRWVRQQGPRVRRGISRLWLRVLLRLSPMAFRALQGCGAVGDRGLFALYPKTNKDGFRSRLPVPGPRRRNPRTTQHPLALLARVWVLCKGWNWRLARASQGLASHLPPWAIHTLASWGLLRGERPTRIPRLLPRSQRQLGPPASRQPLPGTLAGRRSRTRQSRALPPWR
Non-receptor tyrosine-protein kinase TYK2 (Homo sapiens), sequence (P29597 whole entry, the tested form may be a part): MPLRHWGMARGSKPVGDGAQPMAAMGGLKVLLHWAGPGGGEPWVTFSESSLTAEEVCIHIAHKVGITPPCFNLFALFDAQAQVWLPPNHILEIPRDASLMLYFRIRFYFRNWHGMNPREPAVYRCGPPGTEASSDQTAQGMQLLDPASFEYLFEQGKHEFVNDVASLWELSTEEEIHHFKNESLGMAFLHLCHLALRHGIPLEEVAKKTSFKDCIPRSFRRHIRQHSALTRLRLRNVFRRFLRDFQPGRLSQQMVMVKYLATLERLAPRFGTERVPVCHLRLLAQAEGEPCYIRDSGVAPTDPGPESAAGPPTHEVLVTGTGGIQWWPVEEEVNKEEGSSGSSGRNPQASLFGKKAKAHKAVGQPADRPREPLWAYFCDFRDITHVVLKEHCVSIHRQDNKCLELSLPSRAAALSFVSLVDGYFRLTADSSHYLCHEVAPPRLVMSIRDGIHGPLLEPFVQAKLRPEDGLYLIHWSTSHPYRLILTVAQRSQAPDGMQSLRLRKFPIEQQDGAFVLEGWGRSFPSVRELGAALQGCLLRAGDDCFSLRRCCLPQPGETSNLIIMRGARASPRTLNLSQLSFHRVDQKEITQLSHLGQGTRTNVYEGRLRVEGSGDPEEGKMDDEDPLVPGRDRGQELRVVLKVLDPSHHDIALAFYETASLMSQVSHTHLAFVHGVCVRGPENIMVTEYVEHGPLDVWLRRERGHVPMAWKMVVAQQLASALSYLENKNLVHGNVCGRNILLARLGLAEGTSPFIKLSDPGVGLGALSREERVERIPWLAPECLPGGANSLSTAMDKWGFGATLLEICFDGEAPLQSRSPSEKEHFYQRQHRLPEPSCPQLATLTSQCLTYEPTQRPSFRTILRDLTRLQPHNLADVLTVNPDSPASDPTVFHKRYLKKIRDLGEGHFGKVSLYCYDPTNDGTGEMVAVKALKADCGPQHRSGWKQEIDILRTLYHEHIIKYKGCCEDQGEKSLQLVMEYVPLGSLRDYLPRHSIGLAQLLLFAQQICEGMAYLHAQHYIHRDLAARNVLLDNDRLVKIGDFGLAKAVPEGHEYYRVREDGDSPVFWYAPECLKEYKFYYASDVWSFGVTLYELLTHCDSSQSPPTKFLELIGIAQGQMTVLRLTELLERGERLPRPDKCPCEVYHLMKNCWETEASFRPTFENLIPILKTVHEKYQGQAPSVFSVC
Mitogen-activated protein kinase kinase kinase 14 (Homo sapiens), sequence (Q99558 whole entry, looked up, the tested form may be a part): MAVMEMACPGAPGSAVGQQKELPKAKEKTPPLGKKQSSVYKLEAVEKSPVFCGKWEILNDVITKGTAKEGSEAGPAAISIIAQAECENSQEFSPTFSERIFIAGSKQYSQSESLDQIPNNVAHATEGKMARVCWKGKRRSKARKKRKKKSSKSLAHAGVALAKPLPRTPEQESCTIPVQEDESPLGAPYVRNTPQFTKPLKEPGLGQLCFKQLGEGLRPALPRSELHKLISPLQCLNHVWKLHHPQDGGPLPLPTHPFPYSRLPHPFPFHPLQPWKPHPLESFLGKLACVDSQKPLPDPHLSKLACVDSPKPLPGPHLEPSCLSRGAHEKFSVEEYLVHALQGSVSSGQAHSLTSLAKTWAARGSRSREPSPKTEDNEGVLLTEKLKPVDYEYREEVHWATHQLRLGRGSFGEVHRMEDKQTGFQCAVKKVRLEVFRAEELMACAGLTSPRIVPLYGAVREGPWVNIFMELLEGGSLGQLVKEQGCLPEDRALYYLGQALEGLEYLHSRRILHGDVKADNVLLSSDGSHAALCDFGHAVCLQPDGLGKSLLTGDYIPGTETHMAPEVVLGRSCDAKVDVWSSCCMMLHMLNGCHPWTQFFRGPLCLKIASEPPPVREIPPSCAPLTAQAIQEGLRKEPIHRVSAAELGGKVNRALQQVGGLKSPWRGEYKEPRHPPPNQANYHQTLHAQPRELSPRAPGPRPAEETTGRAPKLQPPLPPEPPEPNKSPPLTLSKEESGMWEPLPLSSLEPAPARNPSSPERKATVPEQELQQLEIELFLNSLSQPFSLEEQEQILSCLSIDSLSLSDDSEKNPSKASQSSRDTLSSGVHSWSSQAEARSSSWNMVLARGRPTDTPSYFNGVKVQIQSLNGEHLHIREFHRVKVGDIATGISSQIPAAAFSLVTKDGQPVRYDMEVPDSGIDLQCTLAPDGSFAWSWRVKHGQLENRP
Serine/threonine-protein kinase NLK (Homo sapiens), sequence (Q9UBE8 whole entry, the tested form may be a part): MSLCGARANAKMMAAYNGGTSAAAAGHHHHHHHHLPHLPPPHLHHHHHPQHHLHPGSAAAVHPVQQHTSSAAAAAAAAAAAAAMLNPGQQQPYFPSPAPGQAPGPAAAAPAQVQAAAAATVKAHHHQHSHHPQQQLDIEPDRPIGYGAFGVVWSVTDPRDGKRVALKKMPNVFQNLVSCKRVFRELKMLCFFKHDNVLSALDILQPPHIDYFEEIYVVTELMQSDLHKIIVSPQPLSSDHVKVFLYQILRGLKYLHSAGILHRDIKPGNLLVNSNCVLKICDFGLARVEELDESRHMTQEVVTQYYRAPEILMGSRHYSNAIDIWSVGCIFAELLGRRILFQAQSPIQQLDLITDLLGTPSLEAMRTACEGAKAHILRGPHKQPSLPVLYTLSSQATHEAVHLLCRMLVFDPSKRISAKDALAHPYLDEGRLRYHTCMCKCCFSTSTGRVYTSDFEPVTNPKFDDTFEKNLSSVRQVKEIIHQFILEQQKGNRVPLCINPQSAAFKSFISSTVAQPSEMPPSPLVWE

One may read the inhibition as the relative decrease from the control value, in per cent. A lower inhibition goes with a response near the control. For `O=C(Nc1cccc([C@@H]2CN(c3ncnc4[nH]ccc34)CCN2CCO)c1)Nc1c(F)cccc1N1CCCC1`, the inhibition worked out at 85% in assay [1]; 99% in [2]; 11% in [3]; 56% in assay [4]; 94% in assay [5]; 84% in assay [6]. Moreover, the inhibition in assay [7] is 97%; in assay [8], 93%; in assay [9] it was 100%; in assay [10] it was 63%; in assay [11] it was 54%; in [12], 100%. Besides, in [13], the inhibition came to 86%.

Turning to `O=C(Nc1cccc([C@H]2CCCN(c3ncnc4[nH]ccc34)C2)c1)Nc1ccccc1N1CCCC1`, the inhibition in assay [14] worked out at 85%; in assay [15] it was 26%; in [16], 99%; in assay [17], 6.6%; in assay [18], 58%; in assay [19], 100%. Also, the inhibition was 100% in assay [20]; 60% in [21]; 99% in [22]; 32% in [23]; 48% in [24]; 100% in [25]. Also, the inhibition in assay [26] was determined as 100%; in assay [27], 50%.
